{"source": "patent US20210308089A1", "about": "“METHODS OF TREATING AND/OR PREVENTING VIRAL INFECTIONS AND/OR DISEASES CAUSED BY VIRUSES IN A SUBJECT IN NEED THEREOF” (priority 2020, published 2021)", "tested_on": "patients of the REDUCE-IT and earlier EPA placebo-controlled trials", "assay": "Example 3: adverse events by risk ratio, icosapent ethyl vs placebo (candidate categories; infectious disease terms of interest)", "conditions": "for Risk Ratio (95% CI) / ARR / NNT / AR: Cough (AE table) / ARR: Cough (AE table) / NNT: Cough (AE table) / Risk Ratio (95% CI): Cough (AE table): R-I", "key": {"[1]": {"conditions": "Limb Fractures and Dislocations"}, "[2]": {"conditions": "NASH+Hepatic Steatosis for NFS >0.675"}, "[3]": {"conditions": "Psychosis: Psychotic disorder NEC"}, "[4]": {"conditions": "Squamous Cell Carcinoma of Head and Neck"}, "[5]": {"conditions": "Systemic Inflammatory Response Syndrome"}, "[6]": {"conditions": "first of three Cough lines of Table 46"}, "[7]": {"conditions": "second of three Cough lines of Table 46"}}}
{"molecule": "CC/C=C\\C/C=C\\C/C=C\\C/C=C\\C/C=C\\CCCC(=O)OCC", "note": "[icosapent ethyl, eicosapentaenoic acid ethyl ester]", "values": [{"measurement": "Risk Ratio (95% CI)", "setting": "Guttate psoriasis, case counts given", "value": "[1 drug vs 0 PBO]"}, {"measurement": "ARR", "setting": "Hepatitis C", "value": 0.0, "unit": "%"}, {"measurement": "NNT", "setting": "Hepatitis C", "value": "−4089"}, {"measurement": "Risk Ratio (95% CI)", "setting": "Hepatitis C, case counts given", "value": "[1 drug vs 0 PBO]"}, {"measurement": "Risk Ratio (95% CI)", "setting": "IgA Nephropathy", "value": "[No cases in study]"}, {"measurement": "ARR", "setting": "Large intestine polyps", "value": "−0.2", "unit": "%"}, {"measurement": "NNT", "setting": "Large intestine polyps", "value": 511}, {"measurement": "Risk Ratio (95% CI)", "setting": "Large intestine polyps", "value": "0.385 (0.137 to 1.078) 4"}, {"measurement": "ARR", "setting": "Leukaemia", "value": 0.0, "unit": "%"}, {"measurement": "NNT", "setting": "Leukaemia", "value": "−1.67e+07"}, {"measurement": "Risk Ratio (95% CI)", "setting": "Leukaemia", "value": "1.000 (0.063 to 15.986) −1"}, {"measurement": "ARR", "setting": "[1]", "value": "−0.1", "unit": "%"}, {"measurement": "NNT", "setting": "[1]", "value": 1024}, {"measurement": "Risk Ratio (95% CI)", "setting": "[1]", "value": "0.883 (0.541 to 1.439) 1"}, {"measurement": "ARR", "setting": "Liver Cancer", "value": 0.0, "unit": "%"}, {"measurement": "NNT", "setting": "Liver Cancer", "value": "−4088"}, {"measurement": "Risk Ratio (95% CI)", "setting": "Liver Cancer", "value": "2.000 (0.181 to 22.053) −3"}, {"measurement": "ARR", "setting": "Lung Cancer", "value": "−0.1", "unit": "%"}, {"measurement": "NNT", "setting": "Lung Cancer", "value": 1023}, {"measurement": "Risk Ratio (95% CI)", "setting": "Lung Cancer", "value": "0.637 (0.247 to 1.640) 2"}, {"measurement": "ARR", "setting": "Lupus", "value": "−0.0", "unit": "%"}, {"measurement": "NNT", "setting": "Lupus", "value": 4090}, {"measurement": "Risk Ratio (95% CI)", "setting": "Lupus, case counts given", "value": "[0 drug vs 1 PBO]"}, {"measurement": "ARR", "setting": "Macular Degeneration", "value": 0.1, "unit": "%"}, {"measurement": "NNT", "setting": "Macular Degeneration", "value": "−1361"}, {"measurement": "Risk Ratio (95% CI)", "setting": "Macular Degeneration", "value": "1.188 (0.612 to 2.306) −1"}, {"measurement": "Risk Ratio (95% CI)", "setting": "Male Infertility", "value": "[No cases in study]"}, {"measurement": "ARR", "setting": "Migraine", "value": 0.2, "unit": "%"}, {"measurement": "NNT", "setting": "Migraine", "value": "−584"}, {"measurement": "Risk Ratio (95% CI)", "setting": "Migraine", "value": "2.751 (0.877 to 8.631) −4"}, {"measurement": "Risk Ratio (95% CI)", "setting": "Mucositis", "value": "[No cases in study]"}, {"measurement": "ARR", "setting": "Multiple Sclerosis", "value": "−0.0", "unit": "%"}, {"measurement": "NNT", "setting": "Multiple Sclerosis", "value": 4090}, {"measurement": "Risk Ratio (95% CI)", "setting": "Multiple Sclerosis, case counts given", "value": "[0 drug vs 1 PBO]"}, {"measurement": "ARR", "setting": "Muscle spasms", "value": "−1.1", "unit": "%"}, {"measurement": "NNT", "setting": "Muscle spasms", "value": 95}, {"measurement": "Risk Ratio (95% CI)", "setting": "Muscle spasms", "value": "0.579 (0.421 to 0.795) 3"}, {"measurement": "ARR", "setting": "NASH", "value": "−0.1", "unit": "%"}, {"measurement": "NNT", "setting": "NASH", "value": 818}, {"measurement": "Risk Ratio (95% CI)", "setting": "NASH", "value": "0.167 (0.020 to 1.384) 5"}, {"measurement": "ARR", "setting": "NASH for b/l NFS >0.675", "value": "−0.4", "unit": "%"}, {"measurement": "NNT", "setting": "NASH for b/l NFS >0.675", "value": 273}, {"measurement": "Risk Ratio (95% CI)", "setting": "NASH for b/l NFS >0.675", "value": "0.252 (0.028 to 2.251) 4"}, {"measurement": "ARR", "setting": "[2]", "value": "−0.5", "unit": "%"}, {"measurement": "NNT", "setting": "[2]", "value": 209}, {"measurement": "Risk Ratio (95% CI)", "setting": "[2]", "value": "0.740 (0.342 to 1.601) 2"}, {"measurement": "ARR", "setting": "Nephrolithiasis", "value": 0.1, "unit": "%"}, {"measurement": "NNT", "setting": "Nephrolithiasis", "value": "−1017"}, {"measurement": "Risk Ratio (95% CI)", "setting": "Nephrolithiasis", "value": "1.050 (0.777 to 1.419) −1"}, {"measurement": "ARR", "setting": "Nephropathies", "value": "−0.2", "unit": "%"}, {"measurement": "NNT", "setting": "Nephropathies", "value": 455}, {"measurement": "Risk Ratio (95% CI)", "setting": "Nephropathies", "value": "0.679 (0.380 to 1.213)2"}, {"measurement": "ARR", "setting": "Nephrotic Syndrome", "value": "−0.0", "unit": "%"}, {"measurement": "NNT", "setting": "Nephrotic Syndrome", "value": 4090}, {"measurement": "Risk Ratio (95% CI)", "setting": "Nephrotic Syndrome, case counts given", "value": "[0 drug vs 1 PBO]"}, {"measurement": "Risk Ratio (95% CI)", "setting": "PMS/Dysmenorrhea", "value": "[No cases in study]"}, {"measurement": "ARR", "setting": "PTSD", "value": "−0.0", "unit": "%"}, {"measurement": "NNT", "setting": "PTSD", "value": 4092}, {"measurement": "Risk Ratio (95% CI)", "setting": "PTSD", "value": "0.667 (0.111 to 3.989) 2"}, {"measurement": "ARR", "setting": "Pancreatic Cancer", "value": 0.1, "unit": "%"}, {"measurement": "NNT", "setting": "Pancreatic Cancer", "value": "−1022"}, {"measurement": "Risk Ratio (95% CI)", "setting": "Pancreatic Cancer", "value": "5.001 (0.585 to 42.789) −5"}, {"measurement": "ARR", "setting": "Periodontitis", "value": 0.0, "unit": "%"}, {"measurement": "NNT", "setting": "Periodontitis", "value": "−2044"}, {"measurement": "Risk Ratio (95% CI)", "setting": "Polycystic Ovarian Syndrome", "value": "[No cases in study]"}, {"measurement": "ARR", "setting": "Psoriasis", "value": 0.3, "unit": "%"}, {"measurement": "NNT", "setting": "Psoriasis", "value": "−341"}, {"measurement": "Risk Ratio (95% CI)", "setting": "Psoriasis", "value": "1.750 (0.949 to 3.230) −3"}, {"measurement": "ARR", "setting": "Psoriatic Conditions", "value": 0.3, "unit": "%"}, {"measurement": "NNT", "setting": "Psoriatic Conditions", "value": "−292"}, {"measurement": "Risk Ratio (95% CI)", "setting": "Psoriatic Conditions", "value": "1.875 (1.024 to 3.435) −3"}, {"measurement": "ARR", "setting": "[3]", "value": "−0.0", "unit": "%"}, {"measurement": "NNT", "setting": "[3]", "value": 4091}, {"measurement": "Risk Ratio (95% CI)", "setting": "[3]", "value": "0.500 (0.045 to 5.513) 3"}, {"measurement": "Risk Ratio (95% CI)", "setting": "Renal Transplant", "value": "[No cases in study]"}, {"measurement": "ARR", "setting": "Rheumatoid Arthritis", "value": "−0.1", "unit": "%"}, {"measurement": "NNT", "setting": "Rheumatoid Arthritis", "value": 1363}, {"measurement": "Risk Ratio (95% CI)", "setting": "Rheumatoid Arthritis, case counts given", "value": "[0 drug vs 3 PBO]"}, {"measurement": "ARR", "setting": "Schizophrenia NEC", "value": "−0.0", "unit": "%"}, {"measurement": "NNT", "setting": "Schizophrenia NEC", "value": 4091}, {"measurement": "Risk Ratio (95% CI)", "setting": "Schizophrenia NEC", "value": "0.500 (0.045 to 5.513) 3"}, {"measurement": "ARR", "setting": "Sepsis", "value": "−0.1", "unit": "%"}, {"measurement": "NNT", "setting": "Sepsis", "value": 682}, {"measurement": "Risk Ratio (95% CI)", "setting": "Sepsis", "value": "0.807 (0.477 to 1.364) 1"}, {"measurement": "Risk Ratio (95% CI)", "setting": "Sickle Cell Disease", "value": "[No cases in study]"}, {"measurement": "ARR", "setting": "[4]", "value": "−0.0", "unit": "%"}, {"measurement": "NNT", "setting": "[4]", "value": 4090}, {"measurement": "Risk Ratio (95% CI)", "setting": "Squamous Cell Carcinoma of Head and Neck, case counts given", "value": "[0 drug vs 1 PBO]"}, {"measurement": "ARR", "setting": "[5]", "value": "−0.1", "unit": "%"}, {"measurement": "NNT", "setting": "[5]", "value": 682}, {"measurement": "Risk Ratio (95% CI)", "setting": "[5]", "value": "0.143 (0.018 to 1.161) 5"}, {"measurement": "ARR", "setting": "Ulcerative Colitis", "value": "−0.0", "unit": "%"}, {"measurement": "NNT", "setting": "Ulcerative Colitis", "value": 4090}, {"measurement": "Risk Ratio (95% CI)", "setting": "Ulcerative Colitis, case counts given", "value": "[0 drug vs 1 PBO]"}, {"measurement": "ARR", "setting": "Wheezing", "value": "−0.3", "unit": "%"}, {"measurement": "NNT", "setting": "Wheezing", "value": 315}, {"measurement": "Risk Ratio (95% CI)", "setting": "Wheezing", "value": "0.639 (0.379 to 1.076) 2"}, {"measurement": "AR: Cough (AE table)", "setting": "[6]", "value": "1,5%"}, {"measurement": "ARR: Cough (AE table)", "setting": "[6]", "value": 0.9, "unit": "%"}, {"measurement": "NNT: Cough (AE table)", "setting": "[6]", "value": "−112"}, {"measurement": "Risk Ratio (95% CI): Cough (AE table)", "setting": "[6]", "value": "1.928 (0.692 to 5.373) −3"}, {"measurement": "AR: Cough (AE table)", "setting": "[7]", "value": 0.4, "unit": "%"}, {"measurement": "ARR: Cough (AE table)", "setting": "[7]", "value": "−0.2", "unit": "%"}, {"measurement": "NNT: Cough (AE table)", "setting": "[7]", "value": 455}, {"measurement": "Risk Ratio (95% CI): Cough (AE table)", "setting": "[7]", "value": "0.526 (0.245 to 1.131) 3"}, {"measurement": "Severe SIRS: RR", "setting": "vs placebo, p value 0.06", "value": "approximately 0.17"}, {"measurement": "Systemic inflammatory response: risk ratio (RR)", "setting": "vs placebo, p-value 0.0338", "value": 0.143}]}
